Values of other authors as cited in patent publication US20240398763A1, “ORAL DOSAGE FORM CONTAINING ONCOLOGICAL ACTIVE INGREDIENT” (OWP Pharmaceuticals, Inc., priority 2023, published 2024).
Converted amounts (≈) assume the structure as drawn. Structures can show the parent of a compound that is named as a salt. Where two headings read alike, the source gives them in different places.

[1] = in water / aqueous media, in words

| Solubility [1] | Compound | further results |
| --- | --- | --- |
| insoluble in water | Clc1ccc(C(c2ccccc2Cl)C(Cl)Cl)cc1 (stereo not drawn) [mitotane] | – |
| insoluble in water | C=C(c1ccc(C(=O)O)cc1)c1cc2c(cc1C)C(C)(C)CCC2(C)C [bexarotene] | – |
| water soluble | Cc1nccn1CC1CCc2c(c3ccccc3n2C)C1=O (stereo not drawn) [ondansetron hydrochloride] | – |
| water soluble | CCCCCN(C)CCC(O)(P(=O)(O)O)P(=O)(O)O [ibandronate sodium] | – |
| insoluble in water | Cn1cc(-c2cc3c(N4CCN(c5ncc([C@@](C)(N)c6ccc(F)cc6)cn5)CC4)ncnn3c2)cn1 [avapritinib] | – |
| – | CCCCCOC(=O)Nc1nc(=O)n([C@@H]2O[C@H](C)C(O)C2O)cc1F (stereo partly drawn) [capecitabine, pentyl ester [1-(5-deoxy-β-d-ribofuranosyl)-5-fluoro-1,2-dihydro-2-oxo-4-pyrimidinyl]-carbamic acid, reference compound] | Solubility (at 25° C.): 6 mg/mL at 25 °C |
| insoluble in water | Cc1cc(Nc2ncc(Cl)c(Nc3ccccc3S(=O)(=O)C(C)C)n2)c(OC(C)C)cc1C1CCNCC1 [ceritinib] | – |
| – | C[C@@H](Oc1cc(-c2cnn(C3CCNCC3)c2)cnc1N)c1c(Cl)ccc(F)c1Cl [crizotinib] | Solubility (pH 1.6): greater than 10 mg/mL |
| insoluble in water | COc1cc2ncnc(Nc3ccc(F)c(Cl)c3)c2cc1NC(=O)/C=C/CN1CCCCC1 [dacomitinib] | – |
| insoluble in water | Cc1cc(Nc2ncnc3ccc(NC4=NC(C)(C)CO4)cc23)ccc1Oc1ccn2ncnc2c1 [tucatinib] | – |
| – | Nc1nc(F)nc2c1ncn2[C@@H]1O[C@H](COP(=O)(O)O)[C@@H](O)[C@@H]1O [fludarabine phosphate] | Solubility (condition not given): 3 mg/mL |
| insoluble in water | COc1cc(N2CCC(N3CCN(C)CC3)CC2)ccc1Nc1ncc(Cl)c(Nc2ccccc2P(C)(C)=O)n1 [brigatinib] | – |
| – | CC(C)(C#N)c1cc(Cn2cncn2)cc(C(C)(C)C#N)c1 [anastrozole, α,α,α′,α′-tetramethyl-5-(1H-1,2,4-triazol-1-ylmethyl)-1,3-benzenediacetonitrile, reference compound] | Solubility (at 25° C.): solubility (0.5 mg/mL |
| insoluble in water | CC(C)C(=O)Nc1ccc([N+](=O)[O-])c(C(F)(F)F)c1 [flutamide] | – |
| – | O=C(Nc1cnn2ccc(N3CCC[C@@H]3c3cc(F)ccc3F)nc12)N1CC[C@H](O)C1 [larotrectinib] | Aqueous solubility (at 37° C., in words): freely soluble at pH 6.8) |
| insoluble in water | Cc1nc(Nc2ncc(C(=O)Nc3c(C)cccc3Cl)s2)cc(N2CCN(CCO)CC2)n1 [dasatinib] | – |
| – | NC(=O)NO [hydroxyurea] | Solubility (condition not given): 15 mg/mL (≈ 197 mM) |
| – | CN1CC[C@@H](NC(=O)Nc2ccc(C#N)cc2)C[C@@H]1c1nc2ccccc2[nH]1 [glasdegib] | Solubility (condition not given): 1.7 mg/mL (≈ 4.54 mM) |
| water soluble | CC[C@@]1(O)C(=O)OCc2c1cc1n(c2=O)Cc2cc3c(CN(C)C)c(O)ccc3nc2-1 [topotecan] | – |
| insoluble in water | CCc1cc2c(cc1N1CCC(N3CCOCC3)CC1)C(C)(C)c1[nH]c3cc(C#N)ccc3c1C2=O [alectinib] | – |
| – | CONC(=O)Nc1ccc(-c2sc3c(c2CN(C)C)c(=O)n(-c2ccc(OC)nn2)c(=O)n3Cc2c(F)cccc2F)cc1 [relugolix] | Solubility (in water at 25° C.): 0.04 mg per mL in |

| Compound | Solubility [1] | further results |
| --- | --- | --- |
| C=CC(=O)N1CC[C@H](n2nc(C#Cc3cc(OC)cc(OC)c3)c3c(N)ncnc32)C1 [futibatinib] | insoluble in water | – |
| C[C@]12CC[C@@H]3c4ccc(OC(=O)N(CCCl)CCCl)cc4CC[C@H]3[C@@H]1CC[C@@H]2OP(=O)(O)O [estramustine phosphate] | water soluble | – |
| O=C(O)CCCc1ccc(N(CCCl)CCCl)cc1 [chlorambucil] | insoluble in water | – |
